According to EP4680608B1, “2,6-DIHYDRO-7H-PYRAZOLO[3,4-C]PYRIDIN-7-ONE DERIVATIVES AS ANTI-MALARIAL AGENTS” (MMV Medicines for Malaria Venture, priority 2024, dated 2025):
pEC50, pIC50: −log10 of the molar value. Like-named read-outs stand apart in the source and are kept apart here.

Tests used:
P. falciparum 3D7 = test: Asexual blood-stage growth inhibition assay, SYBR green method; format: cell-based; details: ring-stage 3D7 parasites
Procedure: Asexual blood-stage EC50 assays. […] Compound stocks prepared in DMSO were plated using a Tecan D300e automated low volume liquid handler. Ring-stage 3D7 or Dd2 parasites (60 µL cells) (2% hematocrit, 0.5% parasitemia, final DMSO concentration 0.5%) were added to plates, incubated with compounds over a range of concentrations in technical triplicate for 72 h at 37 °C, 5% CO2, and then frozen (-80°C) overnight before analysis. […] Data were analyzed by non-linear regression using GraphPad Prism to determine the EC50 by fitting to the built-in equation (log(inhibitor) vs response-variable slope with four parameters).

P. vivax DHODH = P. vivax DHODH (Plasmodium vivax, UniProt A5K1N1); test: DHODH inhibition, steady-state DCIP assay (PvDHODH); format: biochemical
P. vivax DHODH, sequence (A5K1N1 entry or part of it): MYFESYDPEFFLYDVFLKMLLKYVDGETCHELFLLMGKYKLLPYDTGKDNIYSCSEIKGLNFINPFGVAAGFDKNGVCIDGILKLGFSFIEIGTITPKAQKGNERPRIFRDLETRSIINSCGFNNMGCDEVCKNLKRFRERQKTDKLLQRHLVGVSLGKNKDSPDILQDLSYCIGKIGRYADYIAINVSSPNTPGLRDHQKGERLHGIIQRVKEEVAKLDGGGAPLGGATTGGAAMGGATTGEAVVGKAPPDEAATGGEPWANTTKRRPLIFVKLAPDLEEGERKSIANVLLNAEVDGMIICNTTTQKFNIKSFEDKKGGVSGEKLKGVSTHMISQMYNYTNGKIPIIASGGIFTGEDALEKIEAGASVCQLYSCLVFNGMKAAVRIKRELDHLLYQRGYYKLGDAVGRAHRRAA
Excerpt: (§1) DOI: 10.1074/jbc.M206854200).
(§2) Proteins were expressed and purified on a Pharmacia FPLC using HisTrap HP column chromatography followed by gel filtration chromatography on a Pharmacia HiLoad 16/600 Superdex 200 column, and protein concentration determined based on OD280 using the previously described extinction coefficients (Kokkonda et al., 2020, J Med Chem, 63 (9), 4929-4956. DOI: 10.1021/acs.jmedchem.0c00311). Purified proteins were >95% pure based on SDS-PAGE analysis.
(§3) DHODH activity was monitored in a steady-state assay using the 2,6-dichloroindophenol (DCIP) method at 25°C in assay buffer (100 mM HEPES, pH 8.0, 150 mM NaCl, 1% glycerol, 0.1% Triton X-100 reduced) plus substrates 20 µM CoQD, 200 µM DHO, 120 µM DCIP, and 5 nM enzyme as previously described (Malmquist et al, 2008, Biochemistry, 47 (8), 2466-2475. DOI: 10.1021/bi702218c).
(§4) Compound stocks were prepared at 10-100 mM in DMSO, and diluted working stocks in DMSO were generated as appropriate. Compounds were plated from DMSO stocks in 96 well plate format using a Tecan D300e digital dispenser to generate a 3-fold dilution series over a concentration range of 0.0003 -100 µM (or 30 µM), yielding a final DMSO concentration of 1% in the assay. The top concentration used in the dose response was determined by the initial DMSO stock concentrations:100 µM for 100 mM stocks, and 30 µM for 10 mM stocks. Triplicate rate data were collected at each inhibitor concentration. Inhibitory IC50 values were determined by fitting the data to log (inhibitor) vs response equation Y = bottom + (top - bottom)/(1 + 10A ((X - Log IC50))) in GraphPad Prism. DSM265 ^2 was plated as an assay control in all studies.

Human DHODH = target: T1, Human DHODH (Homo sapiens, UniProt Q02127); test: DHODH inhibition, steady-state DCIP assay (human DHODH); format: biochemical; details: recombinant HsDHODH, DCIP method, 25°C, 5 nM enzyme; top concentration 100 µM or 30 µM
T1 construct: C-terminal His6-tagged HsDHODH residues 29-395 in pET-22b (start ^29MATGDE); His6 (C); made in house; host or cells: E. coli BL21-DE3 (phage-resistant)
T1 sequence (Q02127 29-395): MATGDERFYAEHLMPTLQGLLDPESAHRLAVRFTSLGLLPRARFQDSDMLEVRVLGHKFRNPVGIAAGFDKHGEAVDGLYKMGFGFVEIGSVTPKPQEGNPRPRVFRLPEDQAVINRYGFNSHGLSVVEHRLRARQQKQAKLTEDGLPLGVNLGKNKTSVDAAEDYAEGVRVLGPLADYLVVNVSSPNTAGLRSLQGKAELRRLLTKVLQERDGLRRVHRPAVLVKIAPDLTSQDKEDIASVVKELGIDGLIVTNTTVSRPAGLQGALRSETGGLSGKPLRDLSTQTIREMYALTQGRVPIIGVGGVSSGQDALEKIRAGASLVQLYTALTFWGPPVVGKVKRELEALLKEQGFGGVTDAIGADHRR
Excerpt: as §1, §2, §3, §4

P. falciparum DHODH = target: T2, P. falciparum DHODH (Plasmodium falciparum, UniProt Q08210); test: DHODH inhibition, steady-state DCIP assay (PfDHODH); format: biochemical; details: recombinant PfDHODH, DCIP method, 25°C, 5 nM enzyme
T2 construct: His6 (N); made in house; host or cells: E. coli BL21-DE3 (phage-resistant)
T2 sequence (Q08210 158-569): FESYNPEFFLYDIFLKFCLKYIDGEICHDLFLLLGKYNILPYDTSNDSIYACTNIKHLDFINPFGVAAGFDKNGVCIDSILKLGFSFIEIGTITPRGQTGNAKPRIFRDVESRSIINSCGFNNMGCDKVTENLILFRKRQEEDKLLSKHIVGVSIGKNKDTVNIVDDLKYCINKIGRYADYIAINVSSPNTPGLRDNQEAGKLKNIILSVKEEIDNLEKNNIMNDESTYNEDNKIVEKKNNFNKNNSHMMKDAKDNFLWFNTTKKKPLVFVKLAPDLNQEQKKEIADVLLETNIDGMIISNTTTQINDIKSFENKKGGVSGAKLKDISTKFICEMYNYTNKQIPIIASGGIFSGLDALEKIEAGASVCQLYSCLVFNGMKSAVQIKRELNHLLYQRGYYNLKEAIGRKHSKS
Procedure: as §4, with “Prism.” for “Prism. DSM265 ^2 was plated as an assay control in all studies.”

[1] = Plasmodium falciparum, 3D7, 72 h
[2] = recombinant PvDHODH, DCIP method, 25°C, 5 nM enzyme; read-out: P. vivax DHODH (IC50)
[3] = read-out: P. vivax DHODH (IC50); recombinant PvDHODH, DCIP method, 25°C, 5 nM enzyme

Row | SMILES | pEC50 (P. falciparum 3D7; [1]) | pIC50 (P. vivax DHODH; [2]) | pIC50 (Human DHODH) | pIC50 (P. falciparum DHODH) | pIC50 (P. vivax DHODH; [3]) | pEC50 (P. falciparum 3D7; 72 h)
1 | CC[C@@](N)(c1ccc(C(F)(F)F)c(Cl)c1)c1c2cnn(C3CC3)c(=O)c2nn1C (single isomer, unassigned) [4-18] | 8.47 | 8.21 | 5.33 |  |  | 
2 | CC[C@@](O)(c1cnc(C(F)(F)F)c(Cl)c1)c1c2ncn(C3CC3)c(=O)c2nn1C (single isomer, unassigned) [3-5] | 9.03 | 7.77 | 5.17 |  |  | 
3 | CCn1cc(C)c2c([C@H](O)c3ccc(Cl)c(F)c3)n(C)nc2c1=O (single isomer, unassigned) [1-30] | 8.15 | 8.10 | 4.47 | 7.74 |  | 
4 | Cn1nc2c(=O)n(C3CC3)ncc2c1[C@](O)(c1cnc(C(F)(F)F)c(Cl)c1)C1CC1 (single isomer, unassigned) [2-10] | 7.82 | 7.68 | < 4.52 |  |  | 
5 | Cn1nc2c(=O)n(C3CC3)cnc2c1[C@](O)(c1ccc(C(F)F)c(C#N)c1)C(F)(F)F (single isomer, unassigned) [5-54] | 8.52 | 8.46 | < 4.52 | 7.36 |  | 
6 | Cn1nc2c(=O)n(C3CC3)ccc2c1[C@](C)(O)c1cnc(C(F)(F)F)c(Cl)c1 [1-10] | 8.85 |  |  | 7.60 | 8.01 | 
7 | Cn1nc2c(=O)n(C3CC3)cnc2c1[C@](N)(c1ccc(C(F)(F)F)c(Cl)c1)C(F)(F)F (single isomer, unassigned) [5-51] | 9.15 | 8.40 | 4.52 | 8.37 |  | 
8 | Cn1nc2c(=O)n(C3CC3)cnc2c1[C@](N)(c1ccc(C(F)(F)F)c(Cl)c1)C1CC1 (single isomer, unassigned) [4-24] | 8.68 | 8.06 | 5.49 | 7.96 |  | 
9 | Cn1nc2c(=O)n(C3CC3)ncc2c1[C@](O)(c1cnc(C(F)(F)F)c(Cl)c1)C(F)(F)F (single isomer, unassigned) [5-1] | 8.42 | 7.70 | < 4.52 |  |  | 
10 | CC[C@@](O)(c1ccc(C(F)(F)F)nc1)c1c2ccn(C3CC3)c(=O)c2nn1C (single isomer, unassigned) [1-22] | 8.57 | 7.32 | 5.28 |  |  | 
11 | Cn1nc2c(=O)n(C3CC3)cnc2c1[C@](O)(c1ccc(C(F)(F)F)c(C#N)c1)C(F)(F)F (single isomer, unassigned) [5-56] |  |  |  | 7.74 |  | 9.85
12 | CCn1ccc2c([C@](O)(c3cnc(C(F)(F)F)c(Cl)c3)C3CC3)n(C)nc2c1=O (single isomer, unassigned) [1-32] | 8.62 | 8.10 | < 4.00 |  |  | 
13 | CCn1ccc2c([C@](O)(c3ccc(C(F)(F)F)nc3)C3CC3)n(C)nc2c1=O (single isomer, unassigned) [1-44] | 8.14 | 7.54 | < 4.00 |  |  | 
14 | Cn1nc2c(=O)n(C3CC3)ccc2c1[C@](O)(c1ccc(C(F)(F)F)nc1)C(F)(F)F (single isomer, unassigned) [5-11] | 8.72 | 7.60 | < 4.52 |  |  | 
15 | CC[C@@](O)(c1cnc(C(F)(F)F)c(Cl)c1)c1c2cnn(C3CC3)c(=O)c2nn1C (single isomer, unassigned) [2-14] | 8.57 |  | < 4.52 |  |  | 
16 | Cn1nc2c(=O)n(C3CC3)ccc2c1[C@](N)(c1cnc(C(F)(F)F)c(Cl)c1)C1CC1 (single isomer, unassigned) [4-9] | 7.85 |  | 4.68 | 7.36 |  | 
17 | CC[C@@](O)(c1cc(F)c(Cl)c(F)c1)c1c2ccn(C3CC3)c(=O)c2nn1C (single isomer, unassigned) [1-20] | 9.30 | 7.72 | 5.85 |  |  | 
18 | Cn1nc2c(=O)n(C3CC3)ccc2c1[C@](O)(c1ccc(C(F)(F)F)c(Cl)c1)C(F)(F)F (stereo in doubt) [5-7] | 9.77 |  | 5.33 |  | 8.04 | 
19 | Cn1nc2c(=O)n(C3CC3)ccc2c1[C@](O)(c1cnc(C(F)(F)F)c(Cl)c1)C(F)(F)F (single isomer, unassigned) [5-5] | 9.29 |  | < 4.52 |  |  | 
